Data as given in US20070048247A1, “Deodorizing tablets” (Kimberly-Clark Worldwide, Inc., priority 2005, published 2007).

How the values were obtained:
[1] = Example 3 urine odor panel ranking; parameters: species or system Human; settings: for Average Urine Odor Ranking (with statistical corrections), Avg. Score: ignoring statistical anomalies
Method: (§1) The effectiveness of various quinone compounds in reducing urine odor was compared. […] Human female urine was initially collected and pooled by a nurse on staff at Kimberly-Clark Corporation. The pooled urine was added to mason jars in 50-milliliter aliquots using an automated pipette aid. […] The mason jars were placed in an incubator overnight at 37° C.
(§2) In addition to ranking the jars from least to most malodorous (on a scale from 1 to 7, with 7 being the most malodors), panelists were also asked to judge whether there were secondary (non-urine) odors present and, if so, the extent that the secondary odors were unpleasant (on a scale from 1 to 5, with 5 being extremely unpleasant).
In this assessment, panelists were given instructions to rank the least malodorous jar as “1” and the most malodorous jar as “10,” remaining free to rank the other jars between 2-9.

[2] = Example 1 urine odor panel ranking; parameters: species or system Human; settings: 8 millimolar in urine; for Avg. Ranking (odor) / Ranking 4 (number of panelists) / Ranking 5 (number of panelists) / Ranking 1 (number of panelists) / Ranking 3 (number of panelists) / Ranking 7 (number of panelists): 1 least, 10 most malodorous
Excerpt: Human female urine was initially collected and pooled by a nurse on staff at Kimberly-Clark Corporation. […] Powders of Acid Blue 129 and Acid Green 27 (commercially available from Sigma-Aldrich Chemical Co., Inc. of St. Louis, Mo.), as well as D&C Green No. 5 (commercially available from Noveon Hilton Davis, Inc. of Cincinnati, Ohio), were then weighed and placed into the mason jars containing 50 milliliters of urine so that the final concentration of the powder was 8 millimolar (equivalent to 0.5 wt. %). […] A score of “10” was assigned to the most malodorous jar and a score of “1” was assigned to the least malodorous jar.

[3] = Example 3 secondary (non-urine) odor ranking; parameters: species or system Human; settings: individual panelist scores, scale 1 to 5, 5 extremely unpleasant
Method: as §1, §2

[4] = Example 5 urine odor panel ranking; parameters: species or system Human
Method: Assessments were conducted the following day by asking panelists to rate each jar from 1 (least urine malodor) to 8 (most urine malodor). The results are set forth below in Tables 15-18.

[5] = Example 7 urine odor panel ranking (16 millimolar); parameters: species or system Human; settings: 16 millimolar in urine, 1 least, 10 most urine malodor
Method: The effectiveness of various quinone compounds in reducing urine odor was compared. […] Human female urine was initially collected and pooled at Kimberly-Clark Corporation. The pooled urine was added to mason jars in 50-milliliter aliquots using an automated pipette aid. Powders of the aforementioned quinone compounds (commercially available from Sigma-Aldrich Chemical Co., Inc. of St. Louis, Missouri and Noveon Hilton Davis, Inc. of Cincinnati, Ohio) were weighed and placed into the mason jars containing 50 milliliters of urine so that the final concentration of the powder was 16 millimolar (equivalent to 1 wt. %). The mason jars were placed in an incubator overnight at 37° C. The experimental setup is set forth in more detail below in Table 21.
Jars were wrapped in foil and placed in an incubator at 37° C. overnight. The jars were divided into four groups (C-F), each sharing the same control jar of urine alone (no powder). Assessments were conducted the following day by asking panelists to rate each jar from 1 (least urine malodor) to 10 (most urine malodor).

[6] = Solubility of powder in urine
[7] = Example 6 urine odor panel ranking; parameters: species or system Human; settings: as Example 5, 1 least, 8 most urine malodor
Excerpt: The quinone compounds chosen for this example were Alizarin Blue Black B, Remazol Brilliant Blue R and Acid Green 25. The results are set forth below in Tables 19 and 20.

[8] = Example 3 second grouping, 8 millimolar in urine, 1 least malodorous
[9] = Example 3 top performers of both groupings, after 24 hours, 1 least, 10 most malodorous
[10] = Example 3 top performers, after 24 hours, 1 least, 10 most malodorous
[11] = Example 3 top performers, after 24 hours
[12] = Example 5 Group A, 8 mM in urine, 1 least, 8 most urine malodor
[13] = Example 5, 8 mM in 50 milliliters of urine
[14] = Example 7, 16 mM in 50 milliliters of urine
[15] = Example 5 Group B, 8 mM in urine, 1 least, 8 most urine malodor

CCCCc1ccc(Nc2ccc(Nc3ccc(CCCC)cc3S(=O)(=O)[O-])c3c2C(=O)c2ccccc2C3=O)c(S(=O)(=O)[O-])c1.[Na+].[Na+] [Acid Green 27]
Average Urine Odor Ranking, Avg. Score [1, 8]: 3.6
Urine Odor Ranking 2 (number of panelists) [1, 8]: 2
Urine Odor Ranking 4 (number of panelists) [1, 8]: 1
Urine Odor Ranking 5 (number of panelists) [1, 8]: 2
Urine Odor Ranking 2 (number of panelists) [1, 9]: 1
Urine Odor Ranking 8 (number of panelists) [1, 9]: 2
Urine Odor Ranking 9 (number of panelists) [1, 9]: 1
Urine Odor Ranking 10 (number of panelists) [1, 9]: 1
Average Urine Odor Ranking, Avg. Score [1, 10]: 6.4
Average Urine Odor Ranking (with statistical corrections), Avg. Score [1, 11]: 8.8
reducing urine malodor (in words) [2]: functioned effectively in reducing urine malodor
Avg. Ranking (odor) ([2]; after 6 hours): 4.4
Ranking 4 (number of panelists) ([2]; after 6 hours): 3
Ranking 5 (number of panelists) ([2]; after 6 hours): 2
Avg. Ranking (odor) ([2]; after 24 hours): 4.5
Ranking 1 (number of panelists) ([2]; after 24 hours): 1
Ranking 3 (number of panelists) ([2]; after 24 hours): 2
Ranking 7 (number of panelists) ([2]; after 24 hours): 3
Secondary Odor Ranking ([3]; Example 3 second grouping): 2
Secondary Odor Ranking [3, 11]: 4
Average Rankings (Group A), Avg. Score [4, 12]: 4.25
Urine Odor Ranking 3 (number of panelists) [4, 12]: 1
Urine Odor Ranking 4 (number of panelists) [4, 12]: 2
Urine Odor Ranking 6 (number of panelists) [4, 12]: 1
Average Rankings (Group E), Avg. Score ([5]; Example 7 Group E): 6.2
Urine Odor Ranking 1 (number of panelists) ([5]; Example 7 Group E): 1
Urine Odor Ranking 5 (number of panelists) ([5]; Example 7 Group E): 1
Urine Odor Ranking 7 (number of panelists) ([5]; Example 7 Group E): 1
Urine Odor Ranking 8 (number of panelists) ([5]; Example 7 Group E): 1
Urine Odor Ranking 10 (number of panelists) ([5]; Example 7 Group E): 1
Soluble? [6, 13]: Mostly
Soluble? [6, 14]: Mostly

Cc1ccc(Nc2ccc(Nc3ccc(C)cc3S(=O)(=O)[O-])c3c2C(=O)c2ccccc2C3=O)c(S(=O)(=O)[O-])c1.[Na+].[Na+] [D&C Green No. 5]
urine odor reduction (in words) ([1]; Example 3 second grouping): did not perform as well compared to the other quinone compounds
Urine Odor Ranking 4 (number of panelists) [1, 8]: 3
Urine Odor Ranking 5 (number of panelists) [1, 8]: 2
Urine Odor Ranking 2 (number of panelists) [1, 9]: 1
Urine Odor Ranking 4 (number of panelists) [1, 9]: 1
Urine Odor Ranking 7 (number of panelists) [1, 9]: 2
Urine Odor Ranking 10 (number of panelists) [1, 9]: 1
Average Urine Odor Ranking, Avg. Score [1, 10]: 6.0
Average Urine Odor Ranking (with statistical corrections), Avg. Score [1, 11]: 7.0
reducing urine malodor (in words) [2]: functioned effectively in reducing urine malodor
Avg. Ranking (odor) ([2]; after 6 hours): 3.0
Ranking 1 (number of panelists) ([2]; after 6 hours): 1
Ranking 3 (number of panelists) ([2]; after 6 hours): 3
Ranking 5 (number of panelists) ([2]; after 6 hours): 1
Avg. Ranking (odor) ([2]; after 24 hours): 5.2
Ranking 4 (number of panelists) ([2]; after 24 hours): 3
Ranking 5 (number of panelists) ([2]; after 24 hours): 1
Ranking 7 (number of panelists) ([2]; after 24 hours): 2
Secondary Odor Ranking ([3]; Example 3 second grouping): 4
Secondary Odor Ranking [3, 11]: 4
odor reduction performance (in words) ([4]; Example 5 Group B): performed well
Average Rankings (Group B), Avg. Score [4, 15]: 4.25
Urine Odor Ranking 2 (number of panelists) [4, 15]: 1
Urine Odor Ranking 3 (number of panelists) [4, 15]: 1
Urine Odor Ranking 5 (number of panelists) [4, 15]: 1
Urine Odor Ranking 7 (number of panelists) [4, 15]: 1
Average Rankings (Group D), Avg. Score ([5]; Example 7 Group D): 7
Urine Odor Ranking 5 (number of panelists) ([5]; Example 7 Group D): 2
Urine Odor Ranking 7 (number of panelists) ([5]; Example 7 Group D): 1
Urine Odor Ranking 9 (number of panelists) ([5]; Example 7 Group D): 2
Soluble? [6, 13]: Yes
Soluble? [6, 14]: Yes
Average Rankings, Avg. Score [7]: 6.25
Urine Odor Ranking 5 (number of panelists) [7]: 2
Urine Odor Ranking 7 (number of panelists) [7]: 1
Urine Odor Ranking 8 (number of panelists) [7]: 1
